This note sets out measurements from patent US9809602B2, “Compounds for treating viral infections” (INSTITUT PASTEUR KOREA, priority 2014, dated 2017).

Bounds are passed on as bounds.

A word on the EC50: it is the concentration giving half of the maximal effect.

The first experiment deals with genotype 1/2 chimeric cell culture derived HCV (HCVcc). Description: Genotype 1/2 chimeric HCVcc assay (nano-luciferase, HCV replication). In kind it is cell-based. The conditions noted are these: Hepatitis C virus. On the procedure: Naïve Huh-7.5 target cells were plated at 2400 cells/well in 25 μL of culture media in 384-well plates (Greiner bio-one, μ clear black). After overnight incubation, compounds serially diluted in 10 μL of cell culture media were added. After 2 h compound treatment, cells were inoculated with 40 μL of genotype 1/2 chimeric cell culture derived HCV (HCVcc) which express structural proteins of an HCV genotype 1a isolate (TN accession number EF621489) and non-structural proteins of HCV genotype 2a (JFH-1) with nano-luciferase reporter. At 72 h post infection, nano-luciferase activity (Nano-Glo™, Promega) and cellular ATP (Cell titer-Glo™, Promega) were measured as a marker for HCV replication and cytotoxicity, respectively. EC50 and CC50 were calculated by non-linear regression analyzing using GraphPad Prism (GraphPad Software).
As to `O=C(NCCCN1CCN(c2ccccc2)CC1)c1ccc(Oc2ccccc2)cc1` [Compound 1040], the EC50 lay in the range of 1000 to 10000 nM.

Consider `O=C(NCCCN1CCC(N2CCCCC2)CC1)c1ccc(-c2ccc([N+](=O)[O-])cc2)cc1` [Compound 1122], for which the 50% effective concentration (EC50) is 100 to 1000 nM.

As to `NC(=O)c1ccc(-c2ccc(C(=O)NCCCN3CCC(N4CCCCC4)CC3)cc2)cc1` [Compound 1129], the concentration giving a half-maximal response (EC50) is over 10000 nM.

`O=C(NCCCN1CCC(N2CCCCC2)CC1)c1c(F)cc(-c2ccc(C(F)(F)F)cc2)cc1F` [Compound 1106]: the concentration for a half-maximal effect (EC50) is 100 to 1000 nM.

In the case of `O=C(NCCN1CCC(N2CCCCC2)CC1)c1ccc(Oc2ccccc2)cc1` [Compound 1044], the half-maximal effective concentration (EC50) lay in the range of 1000 to 10000 nM.

For the compound `COc1cc(-c2ccc(C(F)(F)F)cc2)ccc1C(=O)NCCCN1CCC(N2CCCCC2)CC1` [Compound 1155], the concentration giving a half-maximal response (EC50) is 100 to 1000 nM.

In the case of `CC(C)(C)OC(=O)N1CCC(C2CCN(CCCNC(=O)c3ccc(Oc4ccccc4)cc3)CC2)CC1` [Compound 1073], the EC50 is 100 to 1000 nM.

In turn, `O=C(NCCCN1CCC(N2CCCCC2)CC1)c1ccc(-c2ccc(O)cc2)cc1` [Compound 1127] returned an EC50 of 1000 to 10000 nM.

`Cc1cc(-c2ccc(C(F)(F)F)cc2)ccc1C(=O)NCCCN1CCC(N2CCCCC2)CC1` [Compound 1156] registered an EC50 of 100 to 1000 nM.

`O=S(=O)(NCCCN1CCC(N2CCCCC2)CC1)c1ccc(Oc2ccccc2)cc1` [Compound 1060] yielded a concentration for a half-maximal effect (EC50) of 100 to 1000 nM.

`CN1CCC(C2CCN(CCCNC(=O)c3ccc(Oc4ccccc4)cc3)CC2)CC1` [Compound 1065] came in with a 50% effective concentration (EC50) of 100 to 1000 nM.

`O=C(NCCCN1CCC(N2CCCCC2)CC1)c1ccc(-c2ccc(OC(F)(F)F)cc2)cc1` [Compound 1119] displayed a 50% effective concentration (EC50) of 100 to 1000 nM.

`O=C(NCCCN1CCC(N2CCCCC2)CC1)c1ccc(Oc2cccc(C(F)(F)F)c2)cc1` [Compound 1108]: the EC50 lay within 100 to 1000 nM.

For `O=C(NCCCN1CCC(N2CCCCC2)CC1)c1ccc(-c2ccc(C(F)(F)F)cc2)cc1` [Compound 1019], the EC50 lay in the range of 100 to 1000 nM.

`O=C(CCCN1CCC(N2CCCCC2)CC1)Nc1ccc(Oc2ccccc2)cc1` [Compound 1052] showed an EC50 of 100 to 1000 nM.

For `O=C(NCCCN1CCC(N2CCCCC2)CC1)c1ccc(-c2ccc(C(F)(F)F)cc2)c(Cl)c1` [Compound 1085], the EC50 is 100 to 1000 nM.

Staying with this experiment, now noted: Hepatitis C virus, Huh7.5, 72 h.
`Cc1sc(NC(=O)NCc2c(-c3cccc(F)c3)sc3c2CCN(CCN(C)C)C3)c(C(=O)OC(C)(C)C)c1C` [Compound 366] came in with a concentration giving a half-maximal response (EC50) of under 100 nM.

In turn, `CN(C)c1cccc(-c2sc3c(c2CNC(=O)Nc2sc4c(c2C(=O)OC(C)(C)C)CCCC4)CCNC3)c1` [Compound 230] came in with a concentration for a half-maximal effect (EC50) of 1000 to 10000 nM.

The compound `CCOC(=O)c1c(NC(=O)NCc2c(C(F)(F)F)sc3c2CCN(CCN(C)C)C3)sc2c1CCCC2` [Compound 316] registered a half-maximal effective concentration (EC50) of under 100 nM.

For the compound `CCOC(=O)c1c(NC(=O)NCc2c(C(F)(F)F)sc3c2CCN(CC)C3)sc2c1CCCC2` [Compound 118], the EC50 is under 100 nM.

Consider `CC1CCc2c(sc(NC(=O)NCc3c(-n4cccc4)sc4c3CCN(C)C4)c2C(=O)OC(C)(C)C)C1` (centres unmarked) [Compound 210], for which the EC50 was under 100 nM.

`CC1Cc2c(sc(NC(=O)NCc3c(-n4cccc4)sc4c3CCN(C)C4)c2C(=O)OC(C)(C)C)C(C)C1` (centres unmarked) [Compound 293] yielded an EC50 of under 100 nM.

The compound `CC(C)(C)OC(=O)c1c(NC(=O)NCc2c(-n3cccc3)sc3c2CCN(CCC(F)(F)F)C3)sc2c1CCCC2` [Compound 241] showed an EC50 of under 100 nM.

As to `COC(=O)c1c(NC(=O)NCc2c(-n3cccc3)sc3c2CCN(C)C3)sc2c1CCCC2` [Compound 155], the EC50 lay within 100 to 1000 nM.

`O=C(NCc1c(C(F)(F)F)sc2c1CCNC2)Nc1sc2c(c1C(=O)OC1CCOCC1)CCCC2` [Compound 330] came in with an EC50 of under 100 nM.

The compound `CC(C)(C)OC(=O)c1c(NC(=O)NCc2c(C(F)(F)F)sc3c2CCNC3)sc2c1CCOC2O` (centres unmarked) [Compound 320] yielded an EC50 of under 100 nM.

On to `CCOC(=O)c1c(NC(=O)NCc2c(N3CCCC3)sc3c2CCNC3)sc2c1CCCC2` [Compound 125], for which the concentration giving a half-maximal response (EC50) fell in the range of 100 to 1000 nM.

Compound `CCOC(=O)c1c(NC(=O)NCc2c(-n3cccc3)sc(C(=O)OC(C)(C)C)c2C)sc2c1CCCC2` [Compound 50] came in with an EC50 of 1000 to 10000 nM.

As for `CC(C)(C)OC(=O)c1c(NC(=O)NCc2c(-c3ccoc3)sc3c2CCNC3)sc2c1CCCC2` [Compound 183], the EC50 is under 100 nM.

The compound `CN1CCc2c(sc(-n3cccc3)c2CNC(=O)Nc2sc3c(c2C(=O)OC(C)(C)C)CCCCC3)C1` [Compound 301] came in with an EC50 of under 100 nM.

In turn, `CCOC(=O)c1c(NC(=O)NCc2c(-n3cccc3)sc3c2CCNC3)sc2c1CCC(F)(F)C2` [Compound 75] gave a concentration for a half-maximal effect (EC50) of under 100 nM.

Compound `CC(C)(C)OC(=O)c1c(NC(=O)NCc2c(Br)sc3c2CCNC3)sc2c1CCCC2` [Compound 116] returned an EC50 of under 100 nM.

In turn, `CCOC(=O)c1c(NC(=O)NCc2c(-n3cccc3)sc3c2CCN(C(C)=O)C3)sc2c1CCCC2` [Compound 20] displayed an EC50 of under 100 nM.

Regarding `CCOC(=O)c1cc(-c2ccccc2)sc1NC(=O)NCc1c(-n2cccc2)sc2c1CCN(CC)C2` [Compound 40], the EC50 was in the range of 100 to 1000 nM.

For `CC(C)(C)OC(=O)c1c(NC(=O)NCc2c(-c3cc(F)cc(C(F)(F)F)c3)sc3c2CCNC3)sc2c1CCCC2` [Compound 246], the half-maximal effective concentration (EC50) is 1000 to 10000 nM.

Take `CCc1cc(C(=O)OC(C)(C)C)c(NC(=O)NCc2c(C(F)(F)F)sc3c2CCNC3)s1` [Compound 354]: the EC50 was under 100 nM.

The compound `CCN1CCc2c(sc(-n3cccc3)c2CNC(=O)Nc2ccccc2)C1` [Compound 8] came in with an EC50 of over 10000 nM.

The compound `CCOC(=O)c1c(NC(=O)NCc2c(-n3cccc3)sc3c2CCNC3)sc2ccccc12` [Compound 63] came in with an EC50 of 100 to 1000 nM.

`C=CCCOC(=O)c1c(NC(=O)NCc2c(Br)sc3c2CCNC3)sc2c1CCCC2` [Compound 274] yielded a concentration giving a half-maximal response (EC50) of under 100 nM.

Compound `CCN1CCc2c(sc(Br)c2CNC(=O)Nc2sc3c(c2C(=O)OC2CCCC2)CCCC3)C1` [Compound 263] yielded an EC50 of under 100 nM.

`CCOC(=O)c1c(NC(=O)C(=O)NCc2c(-n3cccc3)sc3c2CCN(C(=O)OC(C)(C)C)C3)sc2c1CCCC2` [Compound 85]: the EC50 was over 10000 nM.

For the compound `CC(C)(C)OC(=O)c1c(NC(=O)NCc2c(-c3ccoc3)sc3c2CCNC3)sc2c1CCOC2` [Compound 331], the EC50 is under 100 nM.

Take `O=C(NCc1c(-n2cccc2)sc2c1CCNC2)Nc1sc2c(c1C(=O)OC1CCCCC1)CCCC2` [Compound 273]: the concentration for a half-maximal effect (EC50) was under 100 nM.

The compound `Cc1sc(NC(=O)NCc2c(-c3cccc(F)c3)sc3c2CCNC3)c(C(=O)OC(C)(C)C)c1C` [Compound 364] came in with an EC50 of under 100 nM.

`CCOC(=O)c1c(NC(=O)NCc2c(-n3cccc3)sc3c2CCN(C)C3)sc2c1CC(C)CC2C` (centres unmarked) [Compound 206] had an EC50 of under 100 nM.

In turn, `CCOC(=O)c1c(NC(=O)NCc2c(C(F)(F)F)sc3c2CCNC3)sc2c1CCC(F)(F)C2` [Compound 219] registered an EC50 of under 100 nM.

On to `CC(C)(C)OC(=O)c1c(NC(=O)NCc2c(-c3cccc(O)c3)sc3c2CCNC3)sc2c1CCCC2` [Compound 252], for which the EC50 was 100 to 1000 nM.

With `CN1CCc2c(sc(Br)c2CNC(=O)Nc2sc3c(c2C(=O)OC(C)(C)C)CCCC3)C1` [Compound 185], the half-maximal effective concentration (EC50) was under 100 nM.

Compound `CCc1sc2c(c1CNC(=O)Nc1sc3c(c1C(=O)OC(C)(C)C)CCCCC3)CCNC2` [Compound 312] registered a 50% effective concentration (EC50) of under 100 nM.

The compound `CC(C)(C)OC(=O)c1c(NC(=O)NCc2c(N3CCCC3)sc3c2CCNC3)sc2c1CCCC2` [Compound 143] came in with an EC50 of under 100 nM.

In turn, `CN1CCN(C(=O)c2c(NC(=O)NCc3c(-n4cccc4)sc4c3CCNC4)sc3c2CCCC3)CC1` [Compound 84] displayed an EC50 of 1000 to 10000 nM.

Regarding `O=C(NCc1c(C(F)(F)F)sc2c1CCNC2)Nc1sc2c(c1C(=O)OC1CCCCC1)CCCC2` [Compound 272], the half-maximal effective concentration (EC50) is under 100 nM.

Consider `CCOC(=O)c1c(NC(=O)NCc2c(-n3cccc3)sc3c2CCCN3)sc2c1CCCC2` [Compound 101], for which the concentration for a half-maximal effect (EC50) lay within 100 to 1000 nM.

Compound `CCN1CCc2c(sc(-n3cccc3)c2CNC(=O)Nc2sc3c(c2C(=O)NCCCOC)CCCC3)C1` [Compound 79] yielded an EC50 of 100 to 1000 nM.

In the case of `O=C(NCc1c(Br)sc2c1CCNC2)Nc1sc2c(c1C(=O)OC1CCCCC1)CCCC2` [Compound 271], the concentration for a half-maximal effect (EC50) was under 100 nM.

In turn, `CCOC(=O)c1c(NC(=O)NCc2c(-n3cccc3)sc3c2CCN(CC)C3)sc2c1CC(C)CC2C` (centres unmarked) [Compound 205] returned an EC50 of under 100 nM.

The compound `Cc1nnc(-c2c(NC(=O)NCc3c(Br)sc4c3CCNC4)sc(C)c2C)o1` [Compound 162] had a concentration giving a half-maximal response (EC50) of under 100 nM.

`CCOC(=O)c1c(NC(=O)NCc2c(Br)sc3c2CCN(C(C)C)C3)sc2c1CCCC2` [Compound 200] gave an EC50 of under 100 nM.

`CC(C)(C)OC(=O)c1c(NC(=O)NCc2c(-c3ccc(C(=O)O)cc3F)sc3c2CCNC3)sc2c1CCCC2` [Compound 321] showed a half-maximal effective concentration (EC50) of 1000 to 10000 nM.

`CC(C)(C)OC(=O)c1c(NC(=O)NCc2c(-c3ccc(Cl)cc3)sc3c2CCNC3)sc2c1CCCC2` [Compound 179]: the concentration giving a half-maximal response (EC50) was under 100 nM.

The compound `CCOC(=O)c1c(NC(=O)NCc2c(C(F)(F)F)sc3c2CCNC3)sc2ccccc12` [Compound 348] yielded an EC50 of under 100 nM.

`CCOC(=O)c1c(NC(=O)NCc2c(-n3cccc3)sc3c2CCN(CC)C3)sc2c1CCN(CC)C2` [Compound 26]: the EC50 is under 100 nM.

`O=C(NCc1c(-n2cccc2)sc2c1CCNC2)Nc1sc2c(c1C(=O)N1CCOCC1)CCCC2` [Compound 76] had an EC50 of 100 to 1000 nM.

Turning to `CCN1CCc2c(sc(C(F)(F)F)c2CNC(=O)Nc2sc3c(c2C(=O)OC(C)(C)C)CCC3)C1` [Compound 254], the concentration giving a half-maximal response (EC50) was under 100 nM.

Turning to `CC(C)(C)OC(=O)c1c(NC(=O)NCc2c(-c3ccco3)sc3c2CCNC3)sc2c1CCCC2` [Compound 340], the EC50 was under 100 nM.
